Measurements from the NIST ThermoML archive (doi:10.1021/je700690q).
± gives the expanded uncertainty stated by the source.

Conditions: Liquid, Closed cell (Static) method

Row | Structure (SMILES) | vapor or sublimation pressure (364.52 K) | further results
1 | CC(C)(C)O [2-methylpropan-2-ol] | 143.3 ± 1 kPa | –
2 | C/C=C/C [(E)-2-butene] | 1268.7 ± 5.7 kPa [middle of 5 runs] | –
3 | CCC(C)O (stereo unspecified) [butan-2-ol] | 75.4 ± 0.9 kPa | –
4 | CO [methanol] | 267.6 ± 1.4 kPa | –
5 | CCCO [propan-1-ol] | – | vapor or sublimation pressure (364.53 K): 81.2 ± 0.9 kPa
6 | CC(C)O [propan-2-ol] | – | vapor or sublimation pressure (364.51 K): 144.1 ± 1 kPa
